Source: PMC7889164, “Efficient expression of a cnidarian peptide-gated ion channel in mammalian cells” (Channels, 2021)
Where two headings read alike, the source gives them in different places.

Columns and labels:
HyNaC2/3/5 [1] = conditions: Xenopus oocytes, ref [3], cited from earlier work
HyNaCs = conditions: ref [1–3]; cited from earlier work
Text: Electrophysiological properties of HyNaCs have been successfully characterized in Xenopus laevis oocytes [[1–3],[6]]. While expression in oocytes typically results in large current amplitudes of the foreign ion channel, expression in mammalian expression systems is better suited to study, for example, trafficking and regulation of an ion channel. In this study, we, therefore, expressed HyNaC2/3/5 ...

HyNaC2/3/5 [2] = experiment: Whole-cell patch clamp, current density, HEK 293 cells expressing HyNaC2/3/5 (native or codon-optimized); type: cell-based, Hydra magnipapillata; conditions: for current density: holding potential −70 mV, mean ± SD
Experimental: (§1) Cells were grown at 37 °C in a humidified atmosphere with 5% CO2. HEK 293 T and COS-7 cells were maintained as an adherent monolayer in Dulbecco’s modified Eagle’s medium supplemented with 10% FBS and 2 mM L-glutamine. Cells were passaged every 2–3 days.
(§2) Holding potential was −70 mV.
(§3) Statistical significance was defined as p < 0.05.

HyNaC2/3/5 [3] = experiment: Whole-cell patch clamp, current density, COS-7 cells expressing HyNaC2/3/5 (native or codon-optimized); type: cell-based, Hydra magnipapillata; conditions: for current density: holding potential −70 mV, mean ± SD
Experimental: as §1, §2, §3

HyNaC2/3/5 [4] = experiment: Ca^2+ imaging (Fura-2), HEK 293 cells expressing HyNaC2/3/5; type: cell-based, Hydra magnipapillata; conditions: 1 µM Hydra-RFamide II, Fura-2 340/380 nm, 6 experiments, 2 transfections, ionomycin 1 µM positive control
Experimental: For Ca^2+ imaging, cells were grown on coverslips and transfected as described for electrophysiological recordings. Approximately 48 h after transfection, cells were loaded with 2 µM of Fura-2-AM (Molecular Probes) for 30 min at 37 °C. Subsequently, the coverslips were mounted in a cell chamber and perfused with bath solution. Fura-2 was excited at 340/380 nm and the emission was recorded between 470 and 550 nm on an inverted microscope (IX71, Olympus, Chromaphor) using a sensicam CCD camera (PCO imaging). Acquisition and data analysis were performed using Till Vision real-time imaging software (Till Photonics). At the end of each experiment, a bath solution containing 1 µM ionomycin was used as a positive control.
as §3

[5] = test system: HyNaC2/3/5 (HA-tagged or untagged subunits); experiment: Whole-cell current density of codon-optimized HyNaC2/3/5 with or without C-terminal HA-tags; conditions: RFamide II 1 µM, mean ± S.E.M.
Experimental: The tags were separated from the coding sequence by a flexible linker ([sequence]). Fusion was performed in a two-step PCR protocol. For HyNaC2, the forward primer was 5’-[sequence]-3’, and the reverse primers were 5’-[sequence]-3’ and 5’-[sequence]-3’. For HyNaC3, the forward primer was 5’-[sequence]-3’, and the reverse primers were 5’-[sequence]-3’ and 5’-[sequence]-3’. And for HyNaC5, the forward primer was 5’-[sequence]-3’, and the reverse primers were 5’-[sequence]-3’ and 5’-[sequence]-3’. Constructs were cloned into pcDNA3.1(-) using BamHI and BbsI (HyNaC2) or BamHI and KpnI (HyNaC3 and HyNaC5). The sequences of the constructs were confirmed by sequencing of the full coding sequence (Eurofins Genomics).
Codon optimization of HyNaC2, HyNaC3, and HyNaC5 to Homo sapiens codon usage preferences was performed by BioCat GmbH (Heidelberg, Germany). The cDNA was synthesized with a C-terminal flexible linker ([sequence]) followed by three HA-tags and cloned into pcDNA3.1(-) using the same restriction sites as above. To create the codon-optimized constructs without linkers and tags, PCR was performed to insert an additional restriction site of either BbsI (HyNaC2) or KpnI (HyNaC3 and HyNaC5) between the end of the HyNaC coding sequence and the start of the linker. The resulting constructs were digested with the respective restriction enzymes and cloned into pcDNA3.1(-). The successful removal of linkers and tags was confirmed by sequencing (Eurofins Genomics).
Cells were transfected with 0.6 µg each of HyNaC2, HyNaC3, and HyNaC5 plus 0.2 µg of GFP per 35 mm dish using calcium phosphate transfection. Approximately 48 h after transfection, the culture dish with attached cells was mounted on the stage of an inverted phase-contrast microscope (IX71, Olympus). The recording chamber was perfused with the following bath solution (in mM): NaCl 128, KCl 5.4, HEPES 10, glucose 5.5, MgCl2 1, CaCl2 2; pH was adjusted with NaOH to 7.4 at RT (22–25 °C).
Patch-clamp experiments were performed in the whole-cell configuration, using an Axon-200B amplifier (Molecular Devices; San Jose, CA, USA) and an Axon Digidata 1440 A acquisition system controlled by the Clampex 10.0 software (Molecular Devices). Signals were low pass filtered at 1 kHz and digitized at 4 kHz. Micropipettes (4–6 MΩ) were prepared from borosilicate glass capillaries with a micropipette puller (DMZ-Universal Electrode Puller; Zeitz Instruments, Martinsried, Germany) and filled with an intracellular solution containing (in mM): NaCl 10, KCl 121, HEPES 10, EGTA 5, MgCl2 2. Holding potential was −70 mV. Capacitance and series resistances were compensated electronically at 80% and digital data were stored in a compatible PC for off-line analysis using Clampfit 10.0 software (Molecular Devices).
Electrophysiological data were analyzed offline using Clampfit 10.0 (Molecular Devices). Current density was obtained by dividing the maximal current amplitude (pA) by cell capacitance (pF). Data are presented as mean ± S.D., except for data in Figure 5, which are shown as mean ± S.E.M. The concentration–response curve for RFamide-II and codon-optimized HyNaCs was fitted to a Hill function: I=Imin+ Imax−Imin/1 + X/EC50^H
Statistical analysis was done using an unpaired t-test to compare two conditions and a one-way ANOVA (GraphPad Prism 6.0) for more than two conditions. Statistical significance was defined as p < 0.05.

HyNaC2/3/5 [6] = experiment: Concentration-response curve (whole-cell patch clamp), codon-optimized HyNaC2/3/5 in HEK cells; type: cell-based, Hydra magnipapillata; conditions: codon-optimized HyNaC2/3/5, HEK cells, −70 mV, pH 7.4, RT, mean ± S.D., n = 8, read-out: apparent affinity (EC50, Hill fit)
Text: as §2
where I is the current, [X] is the peptide concentration, Imin and Imax are the […] currents, respectively, EC50 is the concentration at which 50% of the maximal current is obtained, and H is the Hill coefficient (GraphPad Prism 6.0).

pQWLGGRFamide [Hydra-RFamide I]
response in oocytes (HyNaC2/3/5 [1]; 10 µM Hydra-RFamide I): maximal response
activation of HyNaCs (HyNaCs): directly activated
type of current elicited (HyNaC2/3/5 [2]; native HyNaC2/3/5, HEK cells, 10 µM RFamide I): sustained inward currents
current density (HyNaC2/3/5 [2]; native HyNaC2/3/5, HEK cells, 10 µM RFamide I, pH 7.4, RT (22–25 °C), n = 12): 42 ± 10 pA/pF
current amplitude compared with Hydra-RFamide II (HyNaC2/3/5 [3]; codon-optimized HyNaC2/3/5, COS-7 cells, text: 1 µM Hydra-RFamide I (Figure 3B legend: 10 µM), n = 10, p = 0.87 (unpaired t-test)): comparable current amplitudes
current density (HyNaC2/3/5 [3]; native HyNaC2/3/5, COS-7 cells, 10 µM RFamide I, pH 7.4, RT (22–25 °C), n = 12, p < 0.001 vs HEK): 5 ± 2 pA/pF

pQWFNGRFamide [Hydra-RFamide II, neuropeptide of the Hydra nervous system]
response in oocytes (HyNaC2/3/5 [1]; 1 µM Hydra-RFamide II): maximal response
activation of HyNaCs (HyNaCs): directly activated
intracellular Ca^2+ signals (HyNaC2/3/5 [4]; HEK 293 cells expressing codon-optimized HyNaC2/3/5, n = 48 cells, p < 0.001 vs native): robust intracellular Ca^2+ signals
intracellular Ca^2+ increase (HyNaC2/3/5 [4]; HEK 293 cells expressing native HyNaC2/3/5, n = 36 cells): hardly increased intracellular Ca^2+ above background
type of current elicited (HyNaC2/3/5 [2]; codon-optimized HyNaC2/3/5, HEK cells, 1 µM Hydra-RFamide II): sustained inward currents
current density (HyNaC2/3/5 [2]; codon-optimized HyNaC2/3/5, HEK cells, 1 µM Hydra-RFamide II, pH 7.4, RT, n = 15, p < 0.001 vs native): 113 ± 9 pA/pF
current density ([5]; HyNaC2 carried the HA-tag, n = 7–8, p < 0.05 vs untagged): 49 ± 9 pA/pF
current density ([5]; HyNaC3 carried the HA-tag, n = 7–8, p < 0.05 vs untagged): 57 ± 8 pA/pF
current density ([5]; HyNaC5 carried the HA-tag, n = 7–8, p < 0.05 vs untagged): 50 ± 9 pA/pF
current density ([5]; all subunits carrying an HA-tag, n = 7, p < 0.0001): 22 ± 7 pA/pF
current density ([5]; no subunit carried the tag, n = 7–8): 84 ± 9 pA/pF
type of current elicited (HyNaC2/3/5 [3]; codon-optimized HyNaC2/3/5, COS-7 cells, 1 µM Hydra-RFamide II): sustained inward currents
current density (HyNaC2/3/5 [3]; codon-optimized HyNaC2/3/5, COS-7 cells, 1 µM Hydra-RFamide II, pH 7.4, RT, n = 10, p < 0.001 vs native): 17 ± 9 pA/pF
current amplitude compared with Hydra-RFamide I (HyNaC2/3/5 [3]; codon-optimized HyNaC2/3/5, COS-7 cells, text: 10 µM Hydra-RFamide II (Figure 3B legend: 1 µM), n = 10, p = 0.87 (unpaired t-test)): comparable current amplitudes
current density (HyNaC2/3/5 [3]; native HyNaC2/3/5, COS-7 cells, text: 1 µM Hydra-RFamide II (Figure 3 legend: native trace 10 µM RFamide I), n = 12): 2 ± 3 pA/pF
EC50 (HyNaC2/3/5 [6]): 0.14 ± 0.03 µM
